What all share (assay): NCI anticancer screen, dose series, 48 h
Assay [1] deals with 786-0 renal.
For assay [2], the system named is A498 renal.
Assay [3] relates to HL-60(TB) leukemia.
For assay [4], the system named is IGROV1 ovarian.
For assay [5], the system named is M14 melanoma.
Assay [6] relates to RPMI-8226 leukemia.
In assay [7] the test system is SK-MEL-28 melanoma.
The test system of assay [8] is SK-MEL-5 melanoma.
The test system of assay [9] is SR leukemia.
Assay [10] relates to T-47D breast.
Assay [11] concerns TK-10 renal.
In assay [12] the test system is UACC-62 melanoma.
In assay [13] the test system is BT-549 breast.

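Where inhibition never reached the appropriate level, the endpoint shown equals the highest concentration tested. Otherwise, values were interpolated linearly from a five-concentration, 48-hour dose response in 96-well plates. Definition used: TGI = concentration required for complete inhibition of growth.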 A value given as a limit tells only on which side of the number the result lay.

As to `CC(=O)O[C@H]1C(=O)[C@@]2(C)[C@H]([C@H](OC(=O)c3ccccc3)[C@]3(O)C[C@H](OC(=O)[C@H](O)[C@@H](NC(=O)c4ccccc4)c4ccc5ccccc5c4)C(C)=C1C3(C)C)[C@]1(OC(C)=O)CO[C@@H]1C[C@@H]2O`, the TGI is 8.59 µM in assay [1]; 6.96 µM in assay [2]; 0.0327 µM in assay [3]; over 42.3 µM in assay [4]; 1.85 µM in assay [5]; 1.87 µM in [6]. Besides, the TGI is over 23.1 µM in assay [7]; 12.9 µM in assay [8]; 1.85 µM in [9]; over 50 µM in [10]; 18.6 µM in assay [11]; 12.7 µM in [12].

For `COc1ccc2c(c1)CC[C@@H]1C2CC[C@]2(C)C(=O)N(CCN(C)C)C(=O)CC12` (stereo partly drawn), the TGI in assay [1], in assay [2], in assay [13], in [3], in [4] and in assay [5] was over 100 µM in each case. Besides, the TGI in assay [7], in assay [8], in assay [9], in assay [10], in [11] and in [12] was over 100 µM throughout.

Consider `COc1cccc2c1NC(=O)Cc1c-2[nH]c2ccccc12`, for which the TGI in assay [1], in assay [2], in assay [3], in [4], in [5] and in [6] was over 100 µM throughout. Also, the TGI in assay [7], in assay [8], in [9], in assay [10], in [11] and in [12] was over 100 µM each time.

With `N#Cc1c(N)oc(-c2ccc([N+](=O)[O-])cc2)c1C#N`, the TGI in [1] is over 100 µM; in assay [2] it was 53.5 µM; in assay [3] it was over 100 µM; in assay [4], 42.4 µM; in [5], over 100 µM; in [6], over 100 µM. Besides, the TGI in [7] was over 100 µM; in [8] it was 36.4 µM; in [9] it was over 100 µM; in assay [10], 76.2 µM; in assay [11] it was 76.8 µM; in [12] it was over 100 µM.

Take `CCOC(=O)/C=C/C(=O)O/C=C/[N+](=O)[O-]`: the TGI in assay [1], in assay [2], in assay [3], in assay [4], in assay [5] and in assay [6] was over 100 µM each time. The TGI in [8], in assay [9], in [10], in [11] and in assay [12] was over 100 µM in each case.

As to `CC(C)(C)COC(=O)C(C)(C)NC(=O)C(CC(=O)OCc1ccccc1)NC(=O)OCc1ccccc1` (stereo not drawn), the TGI is over 100 µM in assay [1]; 79.5 µM in assay [2]; over 100 µM in assay [3]; over 100 µM in [4]; over 100 µM in [5]; over 100 µM in assay [6]. Besides, the TGI in assay [7] was over 100 µM; in [8] it was 29.1 µM; in assay [9] it was over 100 µM; in assay [10], 60.2 µM; in assay [11], 78.7 µM; in assay [12], 80 µM.

As to `O=C(CN1CCCC1=O)CS(=O)(=O)c1ccccc1`, the TGI in [1], in assay [13], in [3], in assay [4], in assay [5] and in assay [6] was over 100 µM in each case. The TGI in assay [7], in assay [8], in assay [9], in assay [11] and in assay [12] was over 100 µM throughout.

Take `Cn1cnc(N2CCCC2)c(C#N)c1=S`: the TGI in assay [1], in [2], in assay [3], in assay [4], in [5] and in assay [6] was over 100 µM in each case. For the same molecule, the TGI in assay [7], in [8], in assay [9], in assay [10], in [11] and in assay [12] was over 100 µM in each case.

For the molecule `O=c1c2c3c(sc2nc2n1N=CN(c1ccccc1)C2)CCCC3`, the TGI in assay [1], in assay [2], in assay [13], in assay [4], in assay [5] and in [6] was over 100 µM throughout. For the same molecule, the TGI in [7], in assay [8], in [9], in assay [10], in [11] and in [12] was over 100 µM each time.

As to `O=C(NC(=S)Nc1ccc([N+](=O)[O-])cc1)c1ccc2c(c1)Sc1ccccc1O2`, the TGI in assay [1], in assay [2], in [13], in [3], in [4] and in assay [5] was over 100 µM throughout. For the same molecule, the TGI in assay [7], in assay [8], in [9], in assay [10], in [11] and in assay [12] was over 100 µM in each case.

As to `CCn1c2nc(=O)n(CCCCCCCCSC(c3ccccc3)(c3ccccc3)c3ccccc3)c(=O)c-2nc2ccccc21`, the TGI in assay [1] was over 100 µM; in [2] it was over 100 µM; in [3] it was 6.51 µM; in assay [4], over 100 µM; in assay [5] it was 31.6 µM; in assay [6], over 100 µM. Also, the TGI in assay [7] was over 100 µM; in [8] it was 22.9 µM; in assay [9], over 100 µM; in assay [10], over 100 µM; in assay [11], over 100 µM.

In the case of `Cc1cc2c(c(C(=O)NCC(=O)N[C@@H](C)C(=O)OCc3ccccc3)c1)Oc1c(cc(C)cc1C(=O)NCC(=O)N[C@@H](C)C(=O)OCc1ccccc1)S2`, the TGI in [1], in [2], in [13], in assay [4], in [5] and in [6] was over 100 µM each time. The TGI was over 100 µM in assay [8], over 100 µM in [9], 6.28 µM in assay [10] and over 100 µM in [12].

Take `O[C@@H]1C[C@H](Cl)c2c(Cl)sc(Cl)c21`: the TGI in [1], in assay [13], in assay [4], in assay [5], in assay [6] and in assay [7] was over 100 µM in each case. The TGI in [8], in assay [9], in assay [10], in assay [11] and in assay [12] was over 100 µM each time.

Regarding `Cn1c(-c2ccc(-c3cc(-c4cccs4)c(-c4cccs4)n3C)cc2)cc(-c2cccs2)c1-c1cccs1`, the TGI in [1], in [3], in assay [4], in [5], in assay [6] and in [7] was over 100 µM each time. Moreover, the TGI in assay [8], in [9], in [10], in assay [11] and in assay [12] was over 100 µM throughout.

With `COc1cc(C2c3cc4c(cc3OC(NNC(N)=O)C2C)OCO4)cc(OC)c1OC` (stereo not drawn), the TGI in assay [1] is over 100 µM; in assay [2], 0.0599 µM; in assay [13] it was over 100 µM; in assay [4], over 100 µM; in [5] it was over 44.9 µM; in [6], over 58.1 µM. The TGI in [7] is over 100 µM; in assay [8] it was 22.8 µM; in assay [10] it was over 100 µM; in assay [11] it was over 100 µM; in [12], over 100 µM.

As to `O=C1c2ccccc2C(=O)N1n1c(Cc2ccc(Cl)cc2)n[nH]c1=O`, the TGI in assay [1], in [2], in assay [13], in assay [4], in assay [5] and in assay [7] was over 100 µM throughout. In addition, the TGI in [8], in assay [9], in [10], in assay [11] and in assay [12] was over 100 µM each time.

`CNC(=O)N(CCC#N)CCN(C(=O)NC)c1ccccc1`: the TGI in assay [1], in assay [2], in assay [13], in assay [4], in [5] and in assay [6] was over 100 µM throughout. Also, the TGI in [7], in assay [8], in assay [9], in assay [10], in assay [11] and in assay [12] was over 100 µM in each case.

Take `COc1cc(C2c3cc4c(cc3OC(NNc3ccccc3)C2C)OCO4)cc(OC)c1OC` (stereo not drawn): the TGI was 12.8 µM in [1]; 6.76 µM in assay [2]; 33.4 µM in assay [13]; 4.46 µM in assay [3]; over 100 µM in assay [4]; 22.7 µM in [5]. In addition, the TGI in assay [6] was 31.8 µM; in [7], over 100 µM; in assay [8] it was 21 µM; in assay [10] it was over 100 µM; in assay [11], 31.8 µM; in assay [12] it was over 43.5 µM.

In the case of `O=c1cc(-c2ccccc2)[nH]c2ncccc12`, the TGI in [1], in assay [2], in assay [13], in [4], in assay [5] and in assay [6] was over 100 µM each time. The TGI is over 100 µM in assay [7], over 60.6 µM in [8], over 100 µM in assay [10] and over 100 µM in assay [11].

In the case of `Cc1c(Cc2ccccc2)n(C(C)OCCN(OC(=O)Oc2ccccc2)C(=O)Oc2ccccc2)c(=O)[nH]c1=O` (stereo not drawn), the TGI came out at 34.3 µM in assay [1]; 33 µM in assay [13]; 31.7 µM in assay [4]; 32 µM in assay [5]; 79.6 µM in assay [6]; 42 µM in assay [7]. The values for the TGI in assay [8], in [9] and in [12] were 28.4 µM, over 100 µM and 30.5 µM, respectively.

As to `O=c1[nH]c(=O)c2ncn(-c3ccc([N+](=O)[O-])cn3)c2[nH]1`, the TGI in assay [1], in [2], in [13], in assay [3], in assay [5] and in assay [6] was over 100 µM in each case. In addition, the TGI in [7], in assay [8], in [10], in assay [11] and in assay [12] was over 100 µM throughout.

Turning to `CN(C)CN1CSC(=S)N(CN(C)C)C1`, the TGI in [1], in assay [2], in [13], in [4], in [5] and in [7] was over 100 µM throughout. Also, the TGI in assay [8] was over 100 µM; in [9], 55.2 µM; in assay [10] it was over 100 µM; in assay [11], over 100 µM; in assay [12] it was over 100 µM.

In the case of `Cc1ccc(Cc2cc(N3CCN(c4cccc(Cl)c4)CC3)nnc2C)cc1`, the TGI in assay [1], in assay [2], in assay [13], in assay [5], in [6] and in assay [7] was over 100 µM in each case. In addition, the TGI in [8] was 41.6 µM; in assay [10], over 100 µM; in assay [11] it was over 100 µM; in assay [12] it was over 100 µM.

Take `O=c1[nH]c2ccccc2c(O)c1Cc1ccccc1`: the TGI in [1], in assay [2], in [13], in assay [3], in assay [4] and in assay [6] was over 100 µM each time. The TGI in assay [7], in assay [8], in [9] and in [11] was over 100 µM each time.

The values are drawn from PubChem BioAssay (NCI).
